Experiment: Release rate of a volatile compound from a model manually replenished system (mass loss of vials through a mass-regulating barrier)
Format: physicochemical
Conditions: low-density polyethylene barrier, 0.004 inch-thick; air about 1.4 m/s; substantially constant over 133 days in the laboratory (FIG. 5)
Procedure: Experimental release rates of a volatile compound from a model manually replenished system were measured as a function of time. Glass screw-thread sample vials with PTFE/silicone septa and open-top polypropylene caps contained the volatile liquid compound. Two different sizes of vials were employed: small 8 mL capacity (17 mm O.D. and 63 mm height) and large 40 mL capacity (28 mm O.D. and 98 mm height). The test volatile compound selected for study was dimethyldisulfide (DMDS). Duplicate samples of 5.5 mL and 30 mL of DMDS were added to the small and large vials, respectively. Then a mass-regulating barrier was placed on the top of each vial, and the open-top cap was tightly screwed to seal the vial contents. The diameters of the mass-regulating barriers for the small and large vials were 13.4 and 22.0 mm, respectively. In addition, the diameters of the openings in the caps for the small and large vials were 8.78 mm and 14.62 mm, respectively. Each vial with barrier, cap and liquid contents was then immediately weighed on an analytical balance. Next, the vials were placed in a dedicated laboratory fume hood. Ambient air with a bulk velocity of about 1.4 m/s (or 3 mph) passed over the vials. […] From these primary measurements the release rate for each […] was determined as a function of time. […]

In the case of `CSSC` [DMDS, dimethyldisulfide], the release rate is reported as 26 mg/day.

Reference: patent US9185897B2, “Methods to deliver and maintain volatile compounds” (AUBURN UNIVERSITY, priority 2010, dated 2015)
